Assay results: PubChem BioAssay (NCI)
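The compound was tested at five concentrations on cells cultured in 96-well plates, with a 48-hour exposure period. Here, GI50 denotes the concentration required for 50% inhibition of growth. The concentration for full growth arrest is given as TGI.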 *1 amine or outer side, *2 acyl side, *3 side chain or, on linkers, in order; H or OH if unused. Where a SMILES comes first, the peptide text is derived from it. Bridges are numbered along the chain shown (N, C = ends). [ ]: non-standard residue; d: D form. The star is where a group is joined. X19 = O=C([C@H](N[*:1])c1ccc(O[C@H]2O[C@@H](CO)[C@@H](O)[C@@H](O)[C@H]2O[C@@H]2O[C@H](CO)[C@H](O)[C@H](O)[C@@H]2O)cc1)[*:2]; X18 = NC(=O)[C@@H](O[*:3])[C@H](N[*:1])C(=O)[*:2]; X20 = O=C([C@H](N[*:1])c1ccc(O)c(Cl)c1)[*:2]; d(aThr) = C[C@@H](O)[C@@H](N)C(=O)O; dHpg = N[C@@H](C(=O)O)c1ccc(O)cc1; X17 = CC(C)C/C=C/C=C/C(=O)*; dOrn = NCCC[C@@H](N)C(=O)O

Assays:
Assay in all cases: inhibition of tumour cell growth, NCI panel, 48 h
[1] = test system: 786-0 renal
[2] = test system: A498 renal
[3] = test system: A549 NSCLC
[4] = test system: ACHN renal
[5] = test system: BT-549 breast
[6] = test system: CAKI-1 renal
[7] = test system: CCRF-CEM leukemia
[8] = test system: COLO 205 colon
[9] = test system: DU-145 prostate
[10] = test system: EKVX NSCLC
[11] = test system: HCC-2998 colon
[12] = test system: HCT-116 colon
[13] = test system: HCT-15 colon
[14] = test system: HL-60(TB) leukemia
[15] = test system: HOP-62 NSCLC
[16] = test system: HOP-92 NSCLC
[17] = test system: HS 578T breast
[18] = test system: HT29 colon
[19] = test system: IGROV1 ovarian
[20] = test system: KM12 colon
[21] = test system: LOX IMVI melanoma
[22] = test system: M14 melanoma
[23] = test system: MALME-3M melanoma
[24] = test system: MCF7 breast
[25] = test system: MDA-MB-231 breast
[26] = test system: MDA-MB-435
[27] = test system: MOLT-4 leukemia
[28] = test system: NCI-H226 lung
[29] = test system: NCI-H23 lung
[30] = test system: NCI-H460 lung
[31] = test system: NCI-H522 lung
[32] = test system: NCI/ADR-RES ovarian
[33] = test system: OVCAR-3 ovarian
[34] = test system: OVCAR-4 ovarian
[35] = test system: OVCAR-5 ovarian
[36] = test system: OVCAR-8 ovarian
[37] = test system: PC-3 prostate
[38] = test system: RPMI-8226 leukemia
[39] = test system: RXF 393 renal
[40] = test system: SF-268 CNS
[41] = test system: SF-539 CNS
[42] = test system: SK-MEL-2 melanoma
[43] = test system: SK-MEL-28 melanoma
[44] = test system: SK-MEL-5 melanoma
[45] = test system: SK-OV-3 ovarian
[46] = test system: SN12C renal
[47] = test system: SNB-19 CNS
[48] = test system: SNB-75 CNS
[49] = test system: SR leukemia
[50] = test system: SW-620 colon
[51] = test system: T-47D breast
[52] = test system: TK-10 renal
[53] = test system: U251 CNS
[54] = test system: UACC-257 melanoma
[55] = test system: UACC-62 melanoma
[56] = test system: UO-31 renal
[57] = test system: K-562 leukemia
[58] = test system: SF-295 CNS

SMILES: O=C1/C=C/[C@@H](O)[C@@H]2C[C@@H](O)C[C@H]2/C=C/CCC[C@H](CO)O1
- GI50 [1]: 1.78 µM
- TGI [1]: 4.87 µM
- GI50 [2]: 1.31 µM
- TGI [2]: > 100 µM
- GI50 [3]: 3.65 µM
- TGI [3]: > 100 µM
- GI50 [4]: 3.97 µM
- TGI [4]: > 100 µM
- GI50 [5]: 3.98 µM
- TGI [5]: > 100 µM
- GI50 [6]: 3.74 µM
- TGI [6]: > 100 µM
- GI50 [7]: 4.19 µM
- TGI [7]: > 100 µM
- GI50 [8]: 1.7 µM
- TGI [8]: 3.32 µM
- GI50 [9]: 7.75 µM
- TGI [9]: > 100 µM
- GI50 [10]: 3.11 µM
- TGI [10]: > 100 µM
- GI50 [11]: 2.61 µM
- TGI [11]: > 100 µM
- GI50 [12]: 2.52 µM
- TGI [12]: 6.54 µM
- GI50 [13]: 3.62 µM
- TGI [13]: > 100 µM
- GI50 [14]: 2.24 µM
- TGI [14]: 8.29 µM
- GI50 [15]: 3.66 µM
- TGI [15]: > 100 µM
- GI50 [16]: 2.76 µM
- TGI [16]: > 100 µM
- GI50 [17]: > 100 µM
- TGI [17]: > 100 µM
- GI50 [18]: 0.942 µM
- TGI [18]: 12.4 µM
- GI50 [19]: 4.2 µM
- TGI [19]: > 100 µM
- GI50 [20]: 2.42 µM
- TGI [20]: > 100 µM
- GI50 [21]: 0.832 µM
- TGI [21]: 3.81 µM
- GI50 [22]: 2.42 µM
- TGI [22]: > 100 µM
- GI50 [23]: 1.93 µM
- TGI [23]: 7.19 µM
- GI50 [24]: 1.79 µM
- TGI [24]: 5.88 µM
- GI50 [25]: 1.96 µM
- TGI [25]: 4.81 µM
- GI50 [26]: 2.91 µM
- TGI [26]: > 100 µM
- GI50 [27]: 3.11 µM
- TGI [27]: > 100 µM
- GI50 [28]: 1.21 µM
- TGI [28]: 2.74 µM
- GI50 [29]: 2.25 µM
- TGI [29]: > 100 µM
- GI50 [30]: 3.21 µM
- TGI [30]: > 100 µM
- GI50 [31]: 2.67 µM
- TGI [31]: 7.74 µM
- GI50 [32]: 3.17 µM
- TGI [32]: > 100 µM
- GI50 [33]: 2.2 µM
- TGI [33]: > 100 µM
- GI50 [34]: 2.07 µM
- TGI [34]: > 100 µM
- GI50 [35]: 4.19 µM
- TGI [35]: > 100 µM
- GI50 [36]: 3 µM
- TGI [36]: > 100 µM
- GI50 [37]: 2.5 µM
- TGI [37]: > 100 µM
- GI50 [38]: 3.32 µM
- TGI [38]: > 100 µM
- GI50 [39]: 1.61 µM
- TGI [39]: 5.04 µM
- GI50 [40]: 1.33 µM
- TGI [40]: > 100 µM
- GI50 [41]: 3.7 µM
- TGI [41]: > 100 µM
- GI50 [42]: 2.39 µM
- TGI [42]: 5.95 µM
- GI50 [43]: 0.626 µM
- TGI [43]: 3.65 µM
- GI50 [44]: 0.705 µM
- TGI [44]: 2.08 µM
- GI50 [45]: 4.62 µM
- TGI [45]: > 100 µM
- GI50 [46]: 4.24 µM
- TGI [46]: > 100 µM
- GI50 [47]: 3.09 µM
- TGI [47]: > 100 µM
- GI50 [48]: 2.37 µM
- TGI [48]: > 100 µM
- GI50 [49]: 2.5 µM
- TGI [49]: > 100 µM
- GI50 [50]: 2.32 µM
- TGI [50]: 6.81 µM
- GI50 [51]: 2.49 µM
- TGI [51]: 7.12 µM
- GI50 [52]: 3.06 µM
- TGI [52]: 10.9 µM
- GI50 [53]: 3.3 µM
- TGI [53]: > 100 µM
- GI50 [54]: 1.68 µM
- TGI [54]: > 100 µM
- GI50 [55]: 2.55 µM
- TGI [55]: > 100 µM
- GI50 [56]: 2.98 µM
- TGI [56]: > 100 µM

SMILES: CC(C)C/C=C/C=C/C(=O)N[C@@H](CC(N)=O)C(=O)N[C@@H]1C(=O)N[C@H](c2ccc(O)cc2)C(=O)N[C@H](CCCN)C(=O)N[C@H]([C@@H](C)O)C(=O)N[C@H](c2ccc(O)cc2)C(=O)N[C@H](c2ccc(O)cc2)C(=O)N[C@H]([C@H](C)O)C(=O)N[C@H](Cc2ccccc2)C(=O)N[C@H](CCCN)C(=O)N[C@H](c2ccc(O[C@H]3O[C@@H](CO)[C@@H](O)[C@@H](O)[C@H]3O[C@@H]3O[C@H](CO)[C@H](O)[C@H](O)[C@@H]3O)cc2)C(=O)N[C@H]([C@H](C)O)C(=O)N[C@H](c2ccc(O)cc2)C(=O)NCC(=O)N[C@H](CC(C)C)C(=O)N[C@H](C)C(=O)N[C@H](c2ccc(O)c(Cl)c2)C(=O)O[C@@H]1C(N)=O (X17-N[X18][dHpg][dOrn][d(aThr)][dHpg][dHpg][dT][dF][dOrn][X19][dT][dHpg]G[dL][dA][X20]; ester 2-C)
- GI50 [1]: 25 µM
- TGI [1]: 56.7 µM
- GI50 [2]: 80.9 µM
- TGI [2]: > 100 µM
- GI50 [3]: > 100 µM
- TGI [3]: > 100 µM
- GI50 [4]: 68.7 µM
- TGI [4]: > 100 µM
- GI50 [5]: 37.6 µM
- TGI [5]: 87.1 µM
- GI50 [6]: > 100 µM
- TGI [6]: > 100 µM
- GI50 [8]: 37.8 µM
- TGI [8]: > 100 µM
- GI50 [9]: 37.4 µM
- TGI [9]: > 100 µM
- GI50 [10]: 50.6 µM
- TGI [10]: > 100 µM
- GI50 [11]: 57.2 µM
- TGI [11]: > 100 µM
- GI50 [12]: 32.9 µM
- TGI [12]: > 100 µM
- GI50 [13]: 30.3 µM
- TGI [13]: > 100 µM
- GI50 [14]: > 100 µM
- TGI [14]: > 100 µM
- GI50 [15]: 29.9 µM
- TGI [15]: 78.2 µM
- GI50 [16]: 80 µM
- TGI [16]: > 100 µM
- GI50 [17]: 27.8 µM
- TGI [17]: 82.1 µM
- GI50 [18]: 33.2 µM
- TGI [18]: > 100 µM
- GI50 [19]: > 100 µM
- TGI [19]: > 100 µM
- GI50 [57]: 36.3 µM
- TGI [57]: > 100 µM
- GI50 [20]: 27.8 µM
- TGI [20]: > 100 µM
- GI50 [21]: 29.5 µM
- TGI [21]: > 100 µM
- GI50 [22]: 38.4 µM
- TGI [22]: > 100 µM
- GI50 [23]: 29.7 µM
- TGI [23]: 65.5 µM
- GI50 [24]: 31.9 µM
- TGI [24]: 94.7 µM
- GI50 [25]: 16.1 µM
- TGI [25]: 39.6 µM
- GI50 [26]: 26 µM
- TGI [26]: 72.8 µM
- GI50 [27]: 31.7 µM
- TGI [27]: > 100 µM
- GI50 [29]: 25.8 µM
- TGI [29]: 88.9 µM
- GI50 [30]: 23.5 µM
- TGI [30]: 66.9 µM
- GI50 [31]: 33.9 µM
- TGI [31]: > 100 µM
- GI50 [32]: 39.5 µM
- TGI [32]: > 100 µM
- GI50 [33]: 46.5 µM
- TGI [33]: > 100 µM
- GI50 [34]: 39.2 µM
- TGI [34]: > 100 µM
- GI50 [35]: 27 µM
- TGI [35]: 63.5 µM
- GI50 [36]: 46.8 µM
- TGI [36]: > 100 µM
- GI50 [37]: 44 µM
- TGI [37]: > 100 µM
- GI50 [38]: 59.8 µM
- TGI [38]: > 100 µM
- GI50 [39]: 86 µM
- TGI [39]: > 100 µM
- GI50 [40]: 34.2 µM
- TGI [40]: > 100 µM
- GI50 [58]: 15.8 µM
- TGI [58]: 46.1 µM
- GI50 [41]: 22.8 µM
- TGI [41]: 60.9 µM
- GI50 [42]: > 100 µM
- TGI [42]: > 100 µM
- GI50 [43]: 23.6 µM
- TGI [43]: 47.8 µM
- GI50 [44]: 22.1 µM
- TGI [44]: 44.6 µM
- GI50 [45]: 25.3 µM
- TGI [45]: 64.9 µM
- GI50 [46]: > 100 µM
- TGI [46]: > 100 µM
- GI50 [47]: 23.9 µM
- TGI [47]: 55.4 µM
- GI50 [48]: 29.4 µM
- TGI [48]: 79.8 µM
- GI50 [49]: > 100 µM
- TGI [49]: > 100 µM
- GI50 [50]: 26.2 µM
- TGI [50]: 74.8 µM
- GI50 [51]: 34.6 µM
- TGI [51]: 98.9 µM
- GI50 [52]: 38.7 µM
- TGI [52]: 91.1 µM
- GI50 [53]: 24.1 µM
- TGI [53]: 55 µM
- GI50 [54]: 21.9 µM
- TGI [54]: 47.4 µM
- GI50 [55]: 21.2 µM
- TGI [55]: 45.1 µM
- GI50 [56]: > 100 µM
- TGI [56]: > 100 µM
